Data on three molecules can be found in US20240199534A1 (Mitochondria Emotion, Inc., priority 2021, published 2024).

A short description of series [1]: In vivo pharmacokinetics IV and PO (Table 1A). Set-up: species or system mouse. The settings on record: for Tmax: PO, mouse plasma.
Another series concerns the target T1, MFN2 (Mus musculus, UniProt Q80U63).
T1 sequence (Q80U63 1-757): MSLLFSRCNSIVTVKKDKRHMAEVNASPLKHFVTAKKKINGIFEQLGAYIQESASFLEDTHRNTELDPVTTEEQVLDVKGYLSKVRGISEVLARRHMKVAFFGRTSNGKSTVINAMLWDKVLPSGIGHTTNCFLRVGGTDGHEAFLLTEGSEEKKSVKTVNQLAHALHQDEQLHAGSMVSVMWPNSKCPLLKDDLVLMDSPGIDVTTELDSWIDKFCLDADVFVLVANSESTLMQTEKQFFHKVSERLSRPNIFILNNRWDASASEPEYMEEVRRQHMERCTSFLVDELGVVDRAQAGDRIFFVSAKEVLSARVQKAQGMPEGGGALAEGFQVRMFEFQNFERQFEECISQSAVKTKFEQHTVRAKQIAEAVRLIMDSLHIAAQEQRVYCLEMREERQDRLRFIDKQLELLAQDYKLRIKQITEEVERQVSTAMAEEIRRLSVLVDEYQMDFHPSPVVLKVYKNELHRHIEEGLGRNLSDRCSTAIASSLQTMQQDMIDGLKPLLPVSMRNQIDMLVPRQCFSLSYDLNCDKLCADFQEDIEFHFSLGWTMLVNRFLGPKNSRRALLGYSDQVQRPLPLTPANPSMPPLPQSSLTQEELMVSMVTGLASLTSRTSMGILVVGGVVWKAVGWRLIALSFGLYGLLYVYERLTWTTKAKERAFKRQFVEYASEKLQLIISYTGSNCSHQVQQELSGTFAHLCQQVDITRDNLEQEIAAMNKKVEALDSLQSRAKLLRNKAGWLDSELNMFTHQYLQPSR
Kind of series: Mitofusin activation (MFN activity), EC50. It counts as cell-based. Particulars: stereoisomeric configurations of Compound 2. Here is the method:
Mitochondria were then stained with MitoTracker Orange (200 nM; M7510; Invitrogen, Carlsbad, CA, USA). Nuclei were stained with Hoescht (10 μg/ml; Invitrogen, Thermo Fisher Scientific Cat: #H3570). […] Response curves were interpolated using the sigmoidal model using Prism 8 software.
Testing details for the MFN activity and PAMPA assay are provided in U.S. Patent Applications 2020/034566 and 2020/0345669, incorporated herein by reference.

Where two headings read alike, the source gives them in different places.

Take `O=C(N[C@H]1CC[C@H](O)CC1)C1CC1CCCc1ccccc1` (mixture of isomers) [Compound 2, N-((1r,4r)-4-hydroxycyclohexyl)-2-(3-phenylpropyl)cyclopropane-1-carboxamide]: the Vd in series [1] (male, CD-1, mouse, plasma, iv, 10 mg/kg, read-out: Vdss) worked out at 0.6 L/kg. Also, in series [1] (male, CD-1, mouse, plasma, po, 50 mg/kg), the bioavailability (as a rule, the share of a dose that reaches the circulation, judged against a reference dose that is usually intravenous) was found to be 59%. In addition, the MRT (usually the average time that molecules of a dose stay in the body) in series [1] (male, CD-1, mouse, plasma, single 50 mg/kg oral dose, read-out: mean tissue residence time (MRT)) turned out to be 215 min. The Tmax (commonly the time at which the peak concentration occurs) in series [1] (male, CD-1, 50 mg/kg, read-out: Tmax) was determined as 30 min.
As to `O=C(N[C@H]1CC[C@H](O)CC1)[C@@H]1C[C@H]1CCCc1ccccc1` [Compound 2A, (1R,2R)-N-((1r,4R)-4-hydroxycyclohexyl)-2-(3-phenylpropyl)cyclopropane-1-carboxamide], the “activity toward promoting mitofusin activation” value on MFN2 is given as “active toward promoting mitofusin activation”.
In the case of `O=C(CCCCCc1ccccc1)N[C@H]1CC[C@H](O)CC1` [Compound 1, N-(trans-4-hydroxycyclohexyl)-6-phenylhexanamide, reference compound], the “Tmax” value in series [1] (50 mg/kg) is 30 min.
